melting point: 216 to 218 °C
Structure (SMILES): CC(=O)O.N=C(N)c1ccc(CNC(=O)[C@H]2CCCN2C(=O)C(O)C2CCCCC2)cc1 (stereo partly shown) [Example 3, (D)-2-Cyclohexyl-2-hydroxyacetylproline p-amidinobenzylamide Acetate]

— US6900319B2, “Thrombin inhibitors” (Abbott GmbH & Co. KG, priority 1995, dated 2005)
